# From patent publication US20050032124A1, “Identification of genotype-selective agents for treating Huntington's disease” (priority 2003, published 2005)
# Read-outs that look alike come from different tables or passages of the source.
# Experiments:
# Experiment in all cases: Calcein AM viability assay, dilution-series retest
# Type in all cases: cell-based
# [1] = tested on: BJ-TERT/p53DD/CDK4^R24C/D1/ST/RAS^V12 cells; conditions: Homo sapiens, 48 h, read-out: IC50, BJ-TERT/p53DD/CDK4^R24C/cyclineD1/ST/Ras^V12
# Source text: These engineered tumorigenic cells make use of dominantly acting viral oncoproteins such as LT, ST, E6 and E7. These viral proteins are possibly involved in cell transformation in specific forms of cancer, namely simian virus 40-induced malignant mesothelioma (Testa and Giordano, 2001, Semin Cancer Biol 11, 31-8) and human papillomavirus-induced cervical carcinoma (Bosch et al., 2002, J Clin Pathol 55, 244-65), and have been used to disrupt p53 and pRB function to transform cells in vitro and in vivo (Elenbaas et al., 2001, Genes Dev 15, 50-65; Jorcyk et al., 1998, Prostate 34, 10-22; Perez-Stable et al., 1997, Cancer Res 57, 900-6; Rich et al., 2001, Cancer Res 61, 3556-60; Sandmoller et al., 1995, Cell Growth Differ 6, 97-103). Applicants made use of these two different methods for inactivating cellular proteins, (they tested the effects of both LT and E6/E7-based inactivation of pRB and p53) in order to control for idiosyncratic effects that might be observed with a specific viral protein. The selectivity of these compounds was also confirmed in a cell line expressing dominant negative inhibitors of p53 and pRB that are not derived from viral elements. This cell line expresses (i) a truncated form of p53 (p53DD) that disrupts tetramerization of endogenous p53, (ii) a CDK4^R24C mutant resistant to inhibition by p16^INK4A and p15^INK4B (the major negative regulators of CDK4) and (iii) cyclin D1. The effects of the nine genotype-selective compounds were tested at a range of concentrations in these cells, which are referred to as BJ-TERT/ p53DD/CDK4^R24C/D1/ST/RAS^V12 cells (Table 1). […] However, the overall results of the analysis were unchanged by the use of non-viral proteins in this cell line (Table 1).
# (§1) Calcein acetoxylmethyl ester (AM) is a cell membrane-permeable, non-fluorescent compound that is cleaved by intracellular esterases to form the anionic, cell-impermeable, fluorescent compound calcein. Viable cells are stained by calcein because of the presence of intracellular esterases and because the intact plasma membrane prevents fluorescent calcein from leaking out of cells (Wang et al., 1993, supra). Cells were seeded in 384-well plates using a Zymark Sciclone ALH, treated with each compound in triplicate at 4 μg/mL in the primary screen for two days, washed with phosphate-buffered saline on a Packard Minitrak with a 384-well washer and incubated for four hours with 0.7 μg/mL calcein (Molecular Probes). Total fluorescence intensity in each well was recorded on a Packard Fusion platereader, and converted to a percent inhibition of signal by subtracting the instrument background and dividing by the average signal obtained when cells were not treated with any compound.
# (§2) Replica daughter plates were prepared with a Zymark Sciclone ALH and integrated Twister II by diluting stock plates 50 fold in medium lacking serum and pen/strep to obtain a compound concentration in daughter plates of 80 μg/ml with 2% DMSO. Assay plates were prepared by seeding cells in black, clear bottom 384-well plates in columns 1-23 (6000 cells/well in 57 μl) using a syringe bulk dispenser. Columns 3-22 were treated with compounds from a daughter library plate by transferring 3 μl from the daughter library plate using 384-position fixed cannula array. The final compound concentrations in assay plates were thus 4 μg/ml. The assay plates were incubated for 48 hours at 37° C. in humidified incubator containing 5% CO2. Plate processing for the calcein AM viability assay was performed using an integrated Minitrak/Sidetrak robotic system from Packard Bioscience (Perkin Elmer). Assay plates were washed with phosphate buffered saline, and 20 μl of calcein AM (0.7 μg/ml) per well was added. Plates were incubated at room temperature for 4 hours. Fluorescence intensity was determined using a Fusion platereader with filters centered on an excitation of 485 nm and an emission of 535 nm.
# Compounds to be retested were purchased from manufacturers. […]
# [2] = tested on: TIP5/TERT/E6 cells; conditions: Homo sapiens, 48 h, read-out: IC50, TIP-TERT/E6
# Source text: (§3) In a third series, cell lines derived from independently prepared human TIP5 foreskin fibroblasts created by introducing cDNA constructs encoding hTERT, LT, ST and RASV12 (Lessnick et al., 2002, Cancer Cell 1, 393-401) were used. These cell lines were called, respectively: TIP5/TERT, TIP5/TERT/LT, TIP5/TERT/LT/ST, and TIP5/TERT/LT/ST/RAS^V12. In a fourth series, cell lines derived from TIP5 fibroblasts created by introducing cDNA constructs encoding hTERT, E6, E7, ST and RAS^V12 were used. These cell lines were named, respectively: TIP5/TERT/E6, TIP5/TERT/E6/E7, TIP5/TERT/E6/E7/ST, and TIP5/TERT/E6/E7/ST/RAS^V12. In this series, HPV E6 and E7, which inactivate p53 and RB, respectively, serve a similar function as LT in the previous series. However, by using HPV E6 and E7, Applicants were able to observe the effects of inactivating, separately and independently, p53 and RB. Results of a large-scale screen for compounds that display selective killing of these engineered tumorigenic cell lines are described in the examples that follow.
# as §1, §2
# (§4) Compounds to be retested were purchased from manufacturers. Stocks were prepared in DMSO at a concentration of 1 mg/ml in 384-well polypropylene plates with a 16-point, two-fold dilution dose curve of each compound in a column, in duplicates. Column 1-2 and 23-24 were left empty for controls. Daughter retest plates were prepared from stock retest plate by diluting 66.6 fold in DMEM in 384-well deep-deep well plates (4.5 μl transfer into 300 μl). Cells were seeded at a density of 6000 per well in 40 μl, and 20 μl was added from a daughter retest plate. The plates were incubated for two days at 37° C. with 5% CO2.
# (§5) Mean RFU (relative fluorescence units) for untreated cells was calculated by averaging columns 1, 2, and 23 (wells with cells but lacking compounds). […]
# [3] = tested on: TIP5/TERT/LT/ST cells; conditions: Homo sapiens, 48 h, read-out: IC50, TIP5 TERT/LT/ST
# Source text: as §3, §1, §2, §4, §5
# [4] = BJ-TERT/p53DD/CDK4^R24C/cyclineD1/ST/Ras^V12 cells, 16-point two-fold dilution, two days
# [5] = TIP-TERT/E6 cells, 16-point two-fold dilution, two days
# [6] = TIP5 TERT/LT/ST cells, 16-point two-fold dilution, two days
SMILES,IC50 [1] [µg/mL],IC50 [2] [µg/mL],IC50 [3] [µg/mL],"IC50 [1, 4] [µg/mL]","IC50 [2, 5] [µg/mL]","IC50 [3, 6] [µg/mL]"
COc1ccc(C[C@H]2C(=O)N[C@@H](C)C(=O)N(C)[C@@H]3C(=O)N(C)[C@@H](Cc4ccc(O)c(c4)Oc4ccc(cc4)[C@@H]3O)C(=O)N[C@H](C)C(=O)N[C@@H](C)C(=O)N2C)cc1 [Bouvardin],0.156,0.078,0.039,–,–,–
CC[C@@]1(O)C(=O)OCc2c1cc1n(c2=O)Cc2cc3ccccc3nc2-1 [Camptothecin],–,–,–,1.25,> 5,0.156
COc1cccc2c1C(=O)c1c(O)c3c(c(O)c1C2=O)C[C@@](O)(C(C)=O)C[C@@H]3O[C@H]1C[C@H](N)[C@H](O)[C@H](C)O1 [Daunorubicin],0.625,5,0.625,–,–,–
COc1cccc2c1C(=O)c1c(O)c3c(c(O)c1C2=O)C[C@@](O)(C(=O)CO)C[C@@H]3O[C@H]1C[C@H](N)[C@H](O)[C@H](C)O1 [Doxorubicin],–,–,–,1.25,5,0.625
CS[C@H]1SC[C@H]2C(=O)N(C)[C@@H](C(C)C)C(=O)OC[C@@H](NC(=O)c3cnc4ccccc4n3)C(=O)N[C@@H](C)C(=O)N(C)[C@@H]1C(=O)N(C)[C@@H](C(C)C)C(=O)OC[C@@H](NC(=O)c1cnc3ccccc3n1)C(=O)N[C@@H](C)C(=O)N2C [Echinomycin],0.078,> 5,0.0048,–,–,–
CCOc1ccccc1-n1c(C(C)N2CCN(C(=O)COc3ccc(Cl)cc3)CC2)nc2ccccc2c1=O (stereo not drawn) [Erastin],–,–,–,2.5,> 5,5
O=C1c2c(O)ccc(O)c2C(=O)c2c(NCCNCCO)ccc(NCCNCCO)c21 [Mitoxantrone],–,–,–,1.25,1.25,0.625
NC(=O)c1cn([C@@H]2O[C@H](CO)[C@@H](O)[C@H]2O)c2ncnc(N)c12 [Sangivamycin],0.078,0.156,0.039,–,–,–
